5 compounds from ChEMBL document CHEMBL5543144, “Discovery of a Novel Potent Tetrazole Antifungal Candidate with High Selectivity and Broad Spectrum” (J Med Chem, 2024) can be followed below.

As a reminder, the MIC50 is the lowest concentration that inhibits either 50% of growth or 50% of the strains tested, depending on the study. As usually defined, the IC50 is the midpoint of a concentration-inhibition curve.

In brackets after ≈: the same amount, converted by molar mass. Activity calls are given as the source filed them. The rule behind the calls is not given here.

Test [1] deals with Cryptococcus neoformans. The test can be described thus: Antifungal activity against Cryptococcus neoformans H99 assessed as inhibition of fungal growth at 0.125 ug/ml incubated for 48 hrs by plate reader analysis. Type of test: functional, organism-based. The conditions noted are these: dose 0.125 µg/ml.
Test [2] relates to [Candida] auris. In words: Antifungal activity against fluconazole resistant Candida auris 888 assessed as inhibition of fungal growth incubated for 48 hrs by CLSI protocol based microbroth dilution method. Type of test: functional. Conditions: Candidozyma auris. Background: Broth dilution looks for growth in wells or tubes with falling amounts of substance.
The test system of test [3] is [Candida] auris. In words: Antifungal activity against fluconazole resistant Candida auris BS12372 assessed as inhibition of fungal growth incubated for 48 hrs by CLSI protocol based microbroth dilution method. Type of test: functional. Conditions: Candidozyma auris.
Test [4] has as its system [Candida] auris. In words: Antifungal activity against fluconazole resistant Candida auris 887 assessed as inhibition of fungal growth incubated for 48 hrs by CLSI protocol based microbroth dilution method. Format: functional. The conditions noted are these: Candidozyma auris.
The test system of a further test is Nakaseomyces glabratus. In words: Antifungal activity against Candida glabrata 537 assessed as inhibition of fungal growth incubated for 48 hrs by CLSI protocol based microbroth dilution method. Format: functional.
For test [5], the system named is Cryptococcus neoformans. In words: Antifungal activity against Cryptococcus neoformans H99 assessed as inhibition of fungal growth incubated for 72 hrs by CLSI protocol based microbroth dilution method. Format: functional.
The test system of the next test is Aspergillus fumigatus. In words: Antifungal activity against Aspergillus fumigatus 7544 assessed as inhibition of fungal growth incubated for 48 hrs by CLSI protocol based microbroth dilution method. Format: functional.
Test [6] relates to Candida tropicalis. In words: Antifungal activity against Candida tropicalis 2718 assessed as inhibition of fungal growth incubated for 24 hrs by CLSI protocol based microbroth dilution method. Format: functional.
For test [7], the system named is [Candida] auris. In words: Antifungal activity against fluconazole resistant Candida auris D12 assessed as inhibition of fungal growth incubated for 48 hrs by CLSI protocol based microbroth dilution method. Conditions: Candidozyma auris. Format: functional.
Test [8] has as its system Candida albicans. The test can be described thus: Antifungal activity against Candida albicans SC5314 assessed as inhibition of fungal growth incubated for 24 hrs by CLSI protocol based microbroth dilution method. Type of test: functional.
In test [9] the test system is Pichia kudriavzevii. In words: Antifungal activity against Candida krusei 4946 assessed as inhibition of fungal growth incubated for 24 hrs by CLSI protocol based microbroth dilution method. Format: functional.
For test [10], the system named is Candida albicans. In words: Antifungal activity against Candida albicans SC5314 assessed as inhibition of fungal growth at 0.0156 ug/ml incubated for 24 hrs by plate reader analysis. Format: functional, organism-based. Conditions: dose 0.0156 µg/ml.
The test system of another test is Candida parapsilosis. In words: Antifungal activity against Candida parapsilosis 22019 assessed as inhibition of fungal growth incubated for 24 hrs by CLSI protocol based microbroth dilution method. Format: functional. The conditions noted are these: Lodderomyces parapsilosis.
Test [11] deals with Pichia kudriavzevii. The test can be described thus: Antifungal activity against Candida krusei 4946 assessed as inhibition of fungal growth at 0.125 ug/ml incubated for 24 hrs by plate reader analysis. Format: functional, organism-based. Conditions: dose 0.125 µg/ml.
The test system of test [12] is [Candida] auris. In words: Antifungal activity against fluconazole resistant Candida auris 789 assessed as inhibition of fungal growth incubated for 48 hrs by CLSI protocol based microbroth dilution method. Type of test: functional. The conditions noted are these: Candidozyma auris.
Test [13] deals with [Candida] auris. In words: Antifungal activity against fluconazole resistant Candida auris 791 assessed as inhibition of fungal growth incubated for 48 hrs by CLSI protocol based microbroth dilution method. The conditions noted are these: Candidozyma auris. Format: functional.
Test [14] relates to Candida tropicalis. The test can be described thus: Antifungal activity against Candida tropicalis 2718 assessed as inhibition of fungal growth at 32 ug/ml incubated for 24 hrs by plate reader analysis. Format: functional, organism-based. The conditions noted are these: dose 32.0 µg/ml.
In test [15] the test system is Candida albicans. The test can be described thus: Antifungal activity against Candida albicans SC5314 infected in ICR mouse model assessed as fungal burden in kidney at 1 mg/kg/day, po pre-infected with fungi for 2 hrs followed by compound administration and measured after 48 hrs (reference value: 3.89 Log10CFU/g). Type of test: functional.
In a further test the target is T1, Cytochrome P450 1A2 (Homo sapiens, UniProt P05177).
T1 sequence (P05177 whole entry): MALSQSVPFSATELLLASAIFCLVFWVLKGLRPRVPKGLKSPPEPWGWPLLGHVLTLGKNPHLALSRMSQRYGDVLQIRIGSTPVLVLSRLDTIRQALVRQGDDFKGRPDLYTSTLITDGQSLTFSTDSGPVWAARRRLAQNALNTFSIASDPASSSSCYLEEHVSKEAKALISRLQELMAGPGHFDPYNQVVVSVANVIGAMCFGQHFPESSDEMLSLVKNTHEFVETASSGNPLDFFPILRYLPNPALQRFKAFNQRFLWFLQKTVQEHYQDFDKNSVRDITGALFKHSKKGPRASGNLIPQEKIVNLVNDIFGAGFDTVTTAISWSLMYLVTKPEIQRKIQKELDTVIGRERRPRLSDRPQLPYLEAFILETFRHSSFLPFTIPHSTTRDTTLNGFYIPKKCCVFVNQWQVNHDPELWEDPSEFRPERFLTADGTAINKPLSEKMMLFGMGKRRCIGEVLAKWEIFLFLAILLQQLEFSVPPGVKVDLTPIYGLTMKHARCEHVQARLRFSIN
In words: Inhibition of CYP1A2 in human liver microsomes using phenacetin as substrate in presence of NADPH by LC-MS/MS analysis. A general note: Liver microsomes are a subcellular fraction often used to study metabolism.

A further test deals with Cytochrome P450 2D6 (Homo sapiens, UniProt P10635).
The next test addresses Cytochrome P450 3A4 (Homo sapiens, UniProt P08684).
For another test, the target named is Cytochrome P450 2C19 (Homo sapiens, UniProt P33261).
The target in another test is Cytochrome P450 2C9 (Homo sapiens, UniProt P11712).
Test [16] concerns Candida albicans. The test can be described thus: Antifungal activity against Candida albicans SC5314 infected in ICR mouse model assessed as median survival time at 1 mg/kg/day, po pre-infected with fungi for 2 hrs followed by compound administration and measured after 48 hrs (reference value: 3.5 days). Type of test: functional.

Sequence of Cytochrome P450 3A4 (P08684 whole entry): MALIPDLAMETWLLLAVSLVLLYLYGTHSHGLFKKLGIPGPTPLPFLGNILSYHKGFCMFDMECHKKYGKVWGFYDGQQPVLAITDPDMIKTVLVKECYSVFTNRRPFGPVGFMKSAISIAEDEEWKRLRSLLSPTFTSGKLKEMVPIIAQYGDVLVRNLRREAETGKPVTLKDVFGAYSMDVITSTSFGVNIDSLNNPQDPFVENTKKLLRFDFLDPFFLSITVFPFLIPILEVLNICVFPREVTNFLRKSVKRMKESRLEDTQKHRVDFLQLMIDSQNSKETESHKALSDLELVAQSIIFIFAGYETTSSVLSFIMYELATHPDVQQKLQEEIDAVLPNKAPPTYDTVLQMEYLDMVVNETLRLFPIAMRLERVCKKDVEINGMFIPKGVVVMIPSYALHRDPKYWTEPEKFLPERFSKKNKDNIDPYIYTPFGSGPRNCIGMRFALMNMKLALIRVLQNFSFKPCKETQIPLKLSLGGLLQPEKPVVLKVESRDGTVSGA
Sequence of Cytochrome P450 2C9 (P11712 whole entry): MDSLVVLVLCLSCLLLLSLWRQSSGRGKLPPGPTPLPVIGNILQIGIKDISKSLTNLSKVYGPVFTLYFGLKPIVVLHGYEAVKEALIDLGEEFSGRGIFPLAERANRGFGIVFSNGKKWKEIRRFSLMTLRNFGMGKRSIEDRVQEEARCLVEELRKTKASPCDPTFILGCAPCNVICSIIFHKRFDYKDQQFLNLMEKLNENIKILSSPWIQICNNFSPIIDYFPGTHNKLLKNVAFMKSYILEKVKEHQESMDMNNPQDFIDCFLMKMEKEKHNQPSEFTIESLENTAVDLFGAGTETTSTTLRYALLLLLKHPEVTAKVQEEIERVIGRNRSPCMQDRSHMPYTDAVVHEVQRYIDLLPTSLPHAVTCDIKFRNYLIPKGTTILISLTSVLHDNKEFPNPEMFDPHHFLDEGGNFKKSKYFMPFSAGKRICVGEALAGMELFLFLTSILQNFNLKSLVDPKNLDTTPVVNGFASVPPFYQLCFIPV
Sequence of Cytochrome P450 2C19 (P33261 whole entry): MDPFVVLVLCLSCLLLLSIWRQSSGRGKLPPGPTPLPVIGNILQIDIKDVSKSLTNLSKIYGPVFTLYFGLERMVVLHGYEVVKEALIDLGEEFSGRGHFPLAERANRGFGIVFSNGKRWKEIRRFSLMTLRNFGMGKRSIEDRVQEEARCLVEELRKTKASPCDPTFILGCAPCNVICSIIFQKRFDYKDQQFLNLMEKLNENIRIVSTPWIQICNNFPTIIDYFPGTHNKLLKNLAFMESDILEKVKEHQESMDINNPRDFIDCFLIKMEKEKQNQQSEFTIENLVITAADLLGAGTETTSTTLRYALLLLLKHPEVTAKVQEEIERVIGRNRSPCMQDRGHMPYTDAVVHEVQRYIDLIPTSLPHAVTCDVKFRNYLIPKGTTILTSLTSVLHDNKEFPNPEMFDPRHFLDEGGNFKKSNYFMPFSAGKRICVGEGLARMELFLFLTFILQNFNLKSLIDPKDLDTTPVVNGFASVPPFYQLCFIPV
Sequence of Cytochrome P450 2D6 (P10635 whole entry): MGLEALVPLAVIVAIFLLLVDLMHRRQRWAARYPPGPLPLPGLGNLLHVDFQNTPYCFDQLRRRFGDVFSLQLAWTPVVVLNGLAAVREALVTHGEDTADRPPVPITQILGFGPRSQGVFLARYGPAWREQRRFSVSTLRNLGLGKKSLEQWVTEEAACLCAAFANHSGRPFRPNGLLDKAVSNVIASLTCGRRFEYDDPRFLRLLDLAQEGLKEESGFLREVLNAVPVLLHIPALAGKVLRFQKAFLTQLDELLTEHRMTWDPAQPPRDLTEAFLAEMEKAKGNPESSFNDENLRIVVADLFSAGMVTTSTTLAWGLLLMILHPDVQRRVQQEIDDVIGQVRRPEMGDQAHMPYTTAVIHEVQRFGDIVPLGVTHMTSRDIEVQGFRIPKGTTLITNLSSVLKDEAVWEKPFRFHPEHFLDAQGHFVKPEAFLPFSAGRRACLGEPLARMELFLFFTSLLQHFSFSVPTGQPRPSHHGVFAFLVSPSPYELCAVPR

On to `C[C@@H](n1ccc2cc(Cl)ccc2c1=O)[C@](O)(Cn1cncn1)c1ccc(F)cc1F`, for which the outcome in the test on Cryptococcus neoformans [1], in the test on Candida albicans [10] and in the test with Pichia kudriavzevii [11] was Active. The MIC50 in test [Candida] auris [2] is 0.25 µg/mL (≈ 0.58 µM); in test [Candida] auris [3], 0.25 µg/mL (≈ 0.58 µM); in test [Candida] auris [4] it was 0.25 µg/mL (≈ 0.58 µM); with Nakaseomyces glabratus it was < 0.008 µg/mL; in the test on Cryptococcus neoformans [5], < 0.008 µg/mL; in the test on Aspergillus fumigatus it was 0.25 µg/mL (≈ 0.58 µM). Besides, the MIC50 in the test with Candida tropicalis [6] was < 0.008 µg/mL; in test [Candida] auris [7], 0.25 µg/mL (≈ 0.58 µM); in the test with Candida albicans [8], < 0.008 µg/mL; with Pichia kudriavzevii [9], 0.063 µg/mL (≈ 0.146 µM); in the test with Candida parapsilosis, < 0.008 µg/mL; in [Candida] auris [12] it was 0.5 µg/mL (≈ 1.16 µM). Also, the MIC50 in [Candida] auris [13] is 0.5 µg/mL (≈ 1.16 µM).
`C[C@@H](n1cnc2cc(Cl)ccc2c1=O)[C@](O)(Cn1cncn1)c1ccc(F)cc1F` [ALBACONAZOLE]: the MIC50 in test [Candida] auris [2] is 0.5 µg/mL (≈ 1.16 µM); in test [Candida] auris [3] it was 0.25 µg/mL (≈ 0.579 µM); in [Candida] auris [4], 0.5 µg/mL (≈ 1.16 µM); in the test with Nakaseomyces glabratus it was < 0.008 µg/mL; in the test on Cryptococcus neoformans [5] it was < 0.008 µg/mL; with Aspergillus fumigatus, 0.25 µg/mL (≈ 0.579 µM). Also, the MIC50 in the test on Candida tropicalis [6] was < 0.008 µg/mL; in [Candida] auris [7] it was 0.5 µg/mL (≈ 1.16 µM); in the test on Candida albicans [8], < 0.008 µg/mL; with Pichia kudriavzevii [9] it was 0.125 µg/mL (≈ 0.289 µM); with Candida parapsilosis, < 0.008 µg/mL; in [Candida] auris [12], 0.5 µg/mL (≈ 1.16 µM). Besides, the MIC50 in [Candida] auris [13] amounted to 0.5 µg/mL (≈ 1.16 µM). Besides, the outcome in the test on Candida tropicalis [14] and in the test on Candida albicans [10] was Active. The Activity in the test on Candida albicans [15] stood at 3.54 log10CFU/g. Besides, the IC50 at Cytochrome P450 1A2 turned out to be 60.3 µM; on Cytochrome P450 2D6 it was 31.7 µM; against Cytochrome P450 3A4, 0.04 µM; on Cytochrome P450 2C19, 13 µM; against Cytochrome P450 2C9, 10.4 µM. The MST in the test with Candida albicans [16] is 3.5 days.
On to `O[C@@](Cn1cnnn1)(c1ccc(F)cc1F)C(F)(F)c1ccc(-c2ccc(OCC(F)(F)F)cc2)cn1` [OTESECONAZOLE], for which the outcome in the test with Cryptococcus neoformans [1] and in the test with Candida albicans [10] was Active. For the same compound, the MIC50 in [Candida] auris [2] was 8 µg/mL (≈ 15.2 µM); in test [Candida] auris [3], 1 µg/mL (≈ 1.9 µM); in test [Candida] auris [4], 4 µg/mL (≈ 7.58 µM); with Nakaseomyces glabratus, < 0.008 µg/mL; with Cryptococcus neoformans [5] it was < 0.008 µg/mL; with Aspergillus fumigatus, > 64 µg/mL. For the same compound, the MIC50 was < 0.008 µg/mL in the test on Candida tropicalis [6]; 4 µg/mL (≈ 7.58 µM) in [Candida] auris [7]; < 0.008 µg/mL with Candida albicans [8]; 0.5 µg/mL (≈ 0.948 µM) in the test with Pichia kudriavzevii [9]; < 0.008 µg/mL in the test on Candida parapsilosis; 8 µg/mL (≈ 15.2 µM) in test [Candida] auris [12]. Moreover, the MIC50 in [Candida] auris [13] was 8 µg/mL (≈ 15.2 µM).
On to `C[C@@H](c1ncncc1F)[C@](O)(Cn1cncn1)c1ccc(F)cc1F` [VORICONAZOLE], for which the MIC50 in [Candida] auris [2] was 2 µg/mL (≈ 5.73 µM); in [Candida] auris [3], 2 µg/mL (≈ 5.73 µM); in test [Candida] auris [4], 2 µg/mL (≈ 5.73 µM); in the test with Nakaseomyces glabratus, < 0.008 µg/mL; in the test on Cryptococcus neoformans [5], 0.063 µg/mL (≈ 0.18 µM); in the test with Aspergillus fumigatus, 0.25 µg/mL (≈ 0.716 µM). Further, the MIC50 in the test on Candida tropicalis [6] is < 0.008 µg/mL; in test [Candida] auris [7] it was 2 µg/mL (≈ 5.73 µM); in the test on Candida albicans [8], < 0.008 µg/mL; in the test with Pichia kudriavzevii [9], 0.063 µg/mL (≈ 0.18 µM); in the test with Candida parapsilosis, 0.016 µg/mL (≈ 0.0458 µM); in [Candida] auris [12] it was 2 µg/mL (≈ 5.73 µM). Further, in [Candida] auris [13], the MIC50 is 4 µg/mL (≈ 11.5 µM).
With `C[C@@H](n1ncc2cc(Cl)ccc2c1=O)[C@](O)(Cn1cnnn1)c1ccc(F)cc1F`, the MIC50 in test [Candida] auris [2] was 32 µg/mL (≈ 73.9 µM); in test [Candida] auris [3], 4 µg/mL (≈ 9.24 µM); in test [Candida] auris [4], 16 µg/mL (≈ 37 µM); with Nakaseomyces glabratus, < 0.008 µg/mL; in the test on Cryptococcus neoformans [5], 0.063 µg/mL (≈ 0.146 µM); with Aspergillus fumigatus, 8 µg/mL (≈ 18.5 µM). Besides, the MIC50 in the test on Candida tropicalis [6] is < 0.008 µg/mL; in test [Candida] auris [7], 8 µg/mL (≈ 18.5 µM); in the test with Candida albicans [8] it was < 0.008 µg/mL; in the test on Pichia kudriavzevii [9] it was 0.5 µg/mL (≈ 1.16 µM); with Candida parapsilosis, 0.063 µg/mL (≈ 0.146 µM); in test [Candida] auris [12] it was 16 µg/mL (≈ 37 µM). The MIC50 in [Candida] auris [13] amounted to 32 µg/mL (≈ 73.9 µM). Also, in the test on Candida tropicalis [14], the result was Active.
